Laboratory results reported in patent publication US20130136722A1, “Methods of Ex Vivo Expansion of Blood Progenitor Cells, and Generation of Composite Grafts” (The Board of Trustees of The University of Illinois, priority 2011, published 2013).

Experiments:
Assay type in all cases: cell-based, human
[1] = tested on: cord blood-derived CD34+CD90+ cells; experiment: Ex vivo expansion culture of cord blood CD34+ cells with chromatin modifying agents, flow cytometry for CD34/CD90; conditions: for cells co-expressing CD34+ and CD90+ / fold expansion of CD34+CD90+ cells / expansion of CD34+CD90+ cells (in words): 9 days of culture; for cells co-expressing CD34+ and CD90+: cytokines (SCF, Flt3-ligand, TPO, IL-3) plus CMA, FIG. 1A; for fold expansion of CD34+CD90+ cells: cytokines plus CMA; for fold expansion of CD34+CD90+ cells / expansion of CD34+CD90+ cells (in words): FIG. 1B; for CD34+CD90+ (%): mean ± SEM of three independent experiments
Description: Freshly collected human CB was obtained from the New York Blood Center (New York, N.Y.) according to Institutional Review Board guidelines. Low density CB cells (<1.077 g/ml) were obtained by density centrifugation on Ficoll-Paque PLUS (GE Healthcare Bio-Sciences AB, Uppsala, Sweden), from which CD34^+ cells were immunomagnetically isolated by the MACS CD34 progenitor isolation kit (Miltenyi Biotech, Inc., Auburn, Calif.) as described in Araki et al., 2009, Exp Hematol. 37: 1084-1095). The purity of isolated CD34^+ cells routinely ranged from 90-99%.
CD34^+ cell expansion culture with or without CMA was carried out as described (Araki et al., 2009, Id.; Araki et al. 2006, Exp Hematol. 34: 140-149; Araki et al, 2007, Blood 109: 3570-3578.). All other HDAC inhibitors including 1 mM VPA (Sigma), TSA (5 ng/mL), NA (5 mM) or 5 μM of Suberoylanilide hydroxamic acid (SAHA; BioVision, Inc. Mountain View, Calif.) was added twice at 0 hr and after changing media at 48 hrs of culture. HDAC inhibitors were added only once (48 hr) when used in combination with a DNMT inhibitor as described (Araki et al., 2009, Id.; Araki et al., 2006, Id.; Himburg et al., 2010, Nat. Med. 16: 475-482).
Flow cytometric analysis was carried out as described (Araki et al., 2009, Id.; Araki et al. 2006, Id.; Araki et al, 2007, Id.). All antibodies were purchased from BD Bioscience (San Jose, Calif.). All analyses were paired with the corresponding matched isotype control and at least 10,000 live cells were acquired for each analysis (CellQuest software, Becton Dickinson).
In order to compare the effects of various chromatin modifying agents (CMAs) on the degree of expansion of cord blood-derived, primitive subpopulation of CD34^+ cells, valproic acid (VPA), trichostatin A (TSA), nicotinic acid (NA), suberoylanilide hydroxamic acid (SAHA) or 5-aza-2′-deoxycytidine (5azaD) as single agents or in combination was tested in vitro. The results of fluorescence-activated cell sorting experiments performed on cord blood-derived CD34^+/CD90^+ cells treated with CMA agents is shown in FIG. 1A.

[2] = tested on: colony-forming cells (CFC); experiment: Colony-forming cell (CFC) assay of CMA expanded CB cells; conditions: mean ± SEM of three independent experiments
Description: (§1) Colony-forming cell (CFC) were assayed by plating 5×10^2 cells per dish in semisolid media and were counted after 14 days as described (Araki et al., 2009, Id.). The number of cobble stone area-forming cell (CAFC) was quantitated in primary and expanded CD34+ cells by plating in limiting dilution onto irradiated M2-10B4 stromal cells as described (Araki et al., 2009, Id.; Conneally et al., 1997, Proc. Natl. Acad. Sci. USA. 94: 9836-9841; Taswell, 1981, J. Immunol. 126: 1614-1619).
(§2) In order to determine the a correlation between expansion of CD34^+CD90^+ cells and their functional potential as pluripotent hematopoietic stem cells, in vitro functional assays were performed, including assessment of colony-forming cells (CFC), a short-term assay, and cobblestone-area forming cells (CAFC), a long-term assay.

[3] = tested on: cobblestone area-forming cells (CAFC); experiment: Cobblestone area-forming cell (CAFC) assay, limiting dilution on M2-10B4 stromal cells; conditions: limiting dilution; mean ± SEM of three independent experiments
Description: as §1, §2

Compound: Nc1ncn([C@H]2C[C@H](O)[C@@H](CO)O2)c(=O)n1 [5azaD, 5-aza-2′-deoxycytidine]
- cells co-expressing CD34+ and CD90+ [1]: 2%
- fold expansion of CD34+CD90+ cells [1]: 1.2±0.5 fold
- CD34+CD90+ (%) [1]: 2.33 ± 0.60%
- CFC PE (%) (Colony Forming Cell Plating Efficiency) [2]: 8.70 ± 1.37%
- CAFC Frequency/10^4 cells [3]: 21.73 ± 14.57 /10^4 cells

Compound: O=C(O)c1cccnc1 [NA, nicotinic acid]
- cells co-expressing CD34+ and CD90+ [1]: 6%
- fold expansion of CD34+CD90+ cells [1]: 2.1 fold
- expansion of CD34+CD90+ cells (in words) [1]: did not promote the expansion

Compound: O=C(CCCCCCC(=O)Nc1ccccc1)NO [SAHA, suberoylanilide hydroxamic acid]
- cells co-expressing CD34+ and CD90+ [1]: 3%
- fold expansion of CD34+CD90+ cells [1]: 1.2 fold
- expansion of CD34+CD90+ cells (in words) [1]: did not promote the expansion

Compound: CC(/C=C/C(=O)NO)=C\[C@@H](C)C(=O)c1ccc(N(C)C)cc1 [TSA, trichostatin A]
- cells co-expressing CD34+ and CD90+ [1]: 5%
- fold expansion of CD34+CD90+ cells [1]: 7.8±3.5 fold
- CD34+CD90+ (%) [1]: 5.60 ± 0.29^¤ %
- CFC PE (%) (Colony Forming Cell Plating Efficiency) [2]: 4.97 ± 0.39%
- CAFC Frequency/10^4 cells [3]: 6.39 ± 4.81 /10^4 cells
